Measurements from publication PMC11284788, “NN1213 – A Potent, Long-Acting, and Selective Analog of Human Amylin” (Journal of Medicinal Chemistry, 2024).
Numbered stars: 1 amine (or outer) side, 2 acyl side, 3 side chain; on linkers, the order of the positions; unused ones are H or OH. Bridge positions count the residues as written; N and C are the ends. Side chains are listed from the residue outwards. Peptide text beside a SMILES is read from it. * marks the point of attachment. C20 diacid = O=C(O)CCCCCCCCCCCCCCCCCCC(=O)*; γGlu = O=C(O)[C@H](CCC(=O)[*:2])N[*:1]

Tests used:
[1] = HMWP content by size-exclusion chromatography; format: physicochemical; details: analogs 10–21 (pH 4.0 series); covalent dimers and polymers prior to fibril formation testing, SEC, % of total absorbance area at 215 nm
Method in brief: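 Amylin analogs analysed before fibril-formation testing by isocratic SEC in 0.5 M NaCl, 10 mM sodium dihydrogen phosphate, 5 mM ortho-phosphoric acid, 50% (v/v) 2-propanol. HMWP (covalent dimers/polymers) given as peak absorbance area percentage of total, assuming equal extinction coefficients for HMWP and main peak.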

rAMY3R = target: T1, rAMY3R (Rattus norvegicus, UniProt P32214+Q9JJ73); assay: scintillation proximity binding assay, rAMY3R membranes; design: expressed in transfected cells; host or cells: BHK tk-ts 13, transient co-transfection (FuGENE 6); details: for ratio rCTR/rAMY3R: ratio of binding IC50 values
T1 sequence (P32214 25-479 isoform P32214-2 limits assumed): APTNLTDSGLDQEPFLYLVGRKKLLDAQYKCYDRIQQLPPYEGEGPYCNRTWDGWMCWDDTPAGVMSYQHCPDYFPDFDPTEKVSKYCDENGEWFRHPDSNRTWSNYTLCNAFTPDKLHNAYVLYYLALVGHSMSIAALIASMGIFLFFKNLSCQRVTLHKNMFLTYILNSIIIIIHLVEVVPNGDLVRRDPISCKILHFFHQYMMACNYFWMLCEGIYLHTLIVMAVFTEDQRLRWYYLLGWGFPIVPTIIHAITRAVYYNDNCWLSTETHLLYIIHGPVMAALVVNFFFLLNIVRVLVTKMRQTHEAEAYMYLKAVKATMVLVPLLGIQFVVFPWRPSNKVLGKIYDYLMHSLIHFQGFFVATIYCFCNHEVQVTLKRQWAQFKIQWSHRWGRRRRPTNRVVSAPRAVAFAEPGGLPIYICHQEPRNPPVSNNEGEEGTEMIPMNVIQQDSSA
T1 sequence (Q9JJ73 23-147 partner): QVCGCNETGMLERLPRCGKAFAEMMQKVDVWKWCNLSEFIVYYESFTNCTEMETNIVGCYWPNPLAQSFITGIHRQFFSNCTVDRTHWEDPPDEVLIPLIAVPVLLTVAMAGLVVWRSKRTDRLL

Structure (SMILES): CC[C@H](C)[C@H](NC(=O)[C@H](C)NC(=O)CNC(=O)[C@H](Cc1ccccc1)NC(=O)[C@H](CC(N)=O)NC(=O)[C@@H]1CCCN1C(=O)[C@H](CO)NC(=O)[C@H](CO)NC(=O)[C@H](Cc1c[nH]cn1)NC(=O)[C@H](CCCNC(=N)N)NC(=O)[C@H](CC(C)C)NC(=O)[C@H](Cc1ccccc1)NC(=O)[C@H](CC(N)=O)NC(=O)[C@H](C)NC(=O)[C@H](CC(C)C)NC(=O)[C@H](CCCNC(=N)N)NC(=O)[C@H](CCC(N)=O)NC(=O)[C@@H](NC(=O)[C@H](C)NC(=O)[C@@H]1CSSC[C@H](NC(=O)[C@H](CCCNC(=N)N)NC(=O)CNC(=O)CC[C@H](NC(=O)CCCCCCCCCCCCCCCCCCC(=O)O)C(=O)O)C(=O)N[C@@H](CC(N)=O)C(=O)N[C@@H]([C@@H](C)O)C(=O)N[C@@H](C)C(=O)N[C@@H]([C@@H](C)O)C(=O)N1)[C@@H](C)O)C(=O)N1CCC[C@H]1C(=O)N[C@@H](CO)C(=O)N[C@@H](CO)C(=O)N[C@H](C(=O)N[C@@H](CC(N)=O)C(=O)N[C@H](C(=O)NCC(=O)N[C@@H](CO)C(=O)N[C@@H](Cc1c[nH]cn1)C(=O)N[C@H](C(=O)N[C@@H](Cc1ccc(O)cc1)C(N)=O)[C@@H](C)O)C(C)C)[C@@H](C)O [Peptide 19] ({C20 diacid-γGlu}-GRCNTATCATQRLANFLRHSSPNFGAIPSSTNVGSHTY-NH2; disulfide 3-8)
- HMWP [1]: 0.3%
- rAMY3R pIC50 (rAMY3R; SPA binding assay, Tables S13 and S15): 9.69
- ratio rCTR/rAMY3R (rAMY3R): 84

Structure (SMILES): CC[C@H](C)[C@H](NC(=O)[C@H](C)NC(=O)CNC(=O)[C@H](Cc1ccccc1)NC(=O)[C@H](CC(N)=O)NC(=O)[C@@H]1CCCN1C(=O)[C@H](CO)NC(=O)[C@H](CO)NC(=O)[C@H](Cc1c[nH]cn1)NC(=O)[C@H](CCCNC(=N)N)NC(=O)[C@H](CC(C)C)NC(=O)[C@H](Cc1ccccc1)NC(=O)[C@H](CCC(=O)O)NC(=O)[C@H](C)NC(=O)[C@H](CC(C)C)NC(=O)[C@H](CCCNC(=N)N)NC(=O)[C@H](CCC(N)=O)NC(=O)[C@@H](NC(=O)[C@H](C)NC(=O)[C@@H]1CSSC[C@H](NC(=O)[C@@H](N)CCCCNC(=O)CC[C@H](NC(=O)CCCCCCCCCCCCCCCCCCC(=O)O)C(=O)O)C(=O)N[C@@H](CC(N)=O)C(=O)N[C@@H]([C@@H](C)O)C(=O)N[C@@H](C)C(=O)N[C@@H]([C@@H](C)O)C(=O)N1)[C@@H](C)O)C(=O)N1CCC[C@H]1C(=O)N[C@@H](CO)C(=O)N[C@@H](CO)C(=O)N[C@H](C(=O)N[C@@H](CC(N)=O)C(=O)N[C@H](C(=O)NCC(=O)N[C@@H](CO)C(=O)N[C@@H](CCCNC(=N)N)C(=O)N[C@H](C(=O)N[C@@H](Cc1ccc(O)cc1)C(N)=O)[C@@H](C)O)C(C)C)[C@@H](C)O [Peptide 20] (H-K([γGlu-C20 diacid])CNTATCATQRLAEFLRHSSPNFGAIPSSTNVGSRTY-NH2; disulfide 2-7)
- HMWP [1]: 4.9%
- ratio rCTR/rAMY3R (rAMY3R): 111
